Source: ChEMBL document CHEMBL4406824, “Phenolic N-monosubstituted carbamates: Antitubercular and toxicity evaluation of multi-targeting compounds” (Eur J Med Chem, 2019)
Converted amounts (≈) assume the structure as drawn.

What was measured:
Mycolicibacterium aurum = assay: Antimycobacterial activity against Mycobacterium aurum DSM 43999 after 72 hr by resazurin dye based microdilution method; format: functional; details: DSM 43999, 72 h
[1] = tested on: Mycobacterium tuberculosis; format: functional; details: H37Rv 331/88, 504 h
Mycobacterium avium [2] = assay: Antimycobacterial activity against Mycobacterium avium 330/88 after 21 days; format: functional; details: 330/88, 504 h
[3] = tested on: Mycolicibacterium smegmatis; assay: Antimycobacterial activity against Mycobacterium smegmatis DSM 43465 after 120 hr by resazurin dye based microdilution method; format: functional; details: DSM 43465, 120 h
Mycobacterium avium [4] = assay: Antimycobacterial activity against Mycobacterium avium 330/88 after 14 days; format: functional; details: 330/88, 336 h
HepG2 [5] = assay: Cytotoxicity against human HepG2 cells assessed as reduction in cell viability after overnight incubation by MTT assay; format: cell-based
Mycobacterium kansasii [6] = assay: Antimycobacterial activity against Mycobacterium kansasii 6509/96 after 7 days; format: functional; details: 6509/96, 168 h
Mycobacterium kansasii [7] = assay: Antimycobacterial activity against Mycobacterium kansasii 235/80 after 7 days; format: functional; details: 235/80, 168 h
[8] = tested on: Mycobacterium tuberculosis; assay: Antimycobacterial activity against Mycobacterium tuberculosis H37Ra ITM-M006710 after 48 hr by resazurin dye based microdilution method; format: functional; details: H37Ra ITM-M006710, 48 h
in vitro = details: human, HepG2 cells
Description: Selectivity index, ratio of IC50 for human HepG2 cells to MIC for antimycobacterial activity against Mycobacterium tuberculosis H37Rv

Mycobacterium kansasii [9] = assay: Antimycobacterial activity against Mycobacterium kansasii 235/80 after 14 days; format: functional; details: 235/80, 336 h
Mycobacterium kansasii [10] = assay: Antimycobacterial activity against Mycobacterium kansasii 235/80 after 21 days; format: functional; details: 235/80, 504 h
[11] = tested on: Mycobacterium tuberculosis H37Rv; assay: Inhibition of recombinant Mycobacterium tuberculosis H37Rv ICL1 expressed in Escherichia coli BL21 (DE3) cells at 10 uM using (+)-potassium Ds-threo-isocitrate as substrate by glyoxylate phenyl hydrazone formation assay relative to control
[12] = tested on: Mycobacterium tuberculosis; format: functional; details: H37Rv 331/88, 336 h
Mycobacterium kansasii [13] = assay: Antimycobacterial activity against Mycobacterium kansasii 6509/96 after 21 days; format: functional; details: 6509/96, 504 h
Mycobacterium kansasii [14] = assay: Antimycobacterial activity against Mycobacterium kansasii 6509/96 after 14 days; format: functional; details: 6509/96, 336 h
HepG2 [15] = assay: Cytostatic activity against human HepG2 cells preincubated for overnight in serum free medium followed by compound wash out and further incubated for 72 hrs in presence of serum by MTT assay; format: ADME, cell-based

O=C(NC12CC3CC(CC(C3)C1)C2)Oc1ccc(Cl)cc1
MIC (Mycolicibacterium aurum): ≥ 125 µg/mL
MIC [1]: 125 µM (≈ 38.2 µg/mL)
MIC (Mycobacterium avium [2]): 250 µM (≈ 76.5 µg/mL)
MIC [3]: ≥ 125 µg/mL
MIC (Mycobacterium avium [4]): 125 µM (≈ 38.2 µg/mL)
IC50 (HepG2 [5]): > 125 µM
MIC (Mycobacterium kansasii [6]): 125 µM (≈ 38.2 µg/mL)
MIC (Mycobacterium kansasii [7]): 125 µM (≈ 38.2 µg/mL)
MIC [8]: 62.5 µg/mL
selectivity ratio (in vitro): > 1
MIC (Mycobacterium kansasii [9]): 125 µM (≈ 38.2 µg/mL)
MIC (Mycobacterium kansasii [10]): 125 µM (≈ 38.2 µg/mL)
inhibition [11]: 13%
MIC [12]: 62.5 µM (≈ 19.1 µg/mL)
MIC (Mycobacterium kansasii [13]): 125 µM (≈ 38.2 µg/mL)
MIC (Mycobacterium kansasii [14]): 125 µM (≈ 38.2 µg/mL)
IC50 (HepG2 [15]): > 250 µM

CC[C@@H](CO)NCCN[C@@H](CC)CO [ETHAMBUTOL]
MIC (Mycolicibacterium aurum): 0.9 µM
MIC [3]: 1.8 µM
MIC [8]: 1.8 µM

O=C(Nc1ccccc1)Oc1ccccc1C(=O)Nc1ccccc1
MIC (Mycolicibacterium aurum): 31.2 µg/mL
MIC [1]: 125 µM (≈ 41.5 µg/mL)
MIC (Mycobacterium avium [2]): 125 µM (≈ 41.5 µg/mL)
MIC [3]: 31.2 µg/mL
MIC (Mycobacterium avium [4]): 125 µM (≈ 41.5 µg/mL)
IC50 (HepG2 [5]): 57.6 µM
MIC (Mycobacterium kansasii [6]): 125 µM (≈ 41.5 µg/mL)
MIC (Mycobacterium kansasii [7]): 125 µM (≈ 41.5 µg/mL)
MIC [8]: 31.2 µg/mL
selectivity ratio (in vitro): 0.5
MIC (Mycobacterium kansasii [9]): 250 µM (≈ 83.1 µg/mL)
MIC (Mycobacterium kansasii [10]): 250 µM (≈ 83.1 µg/mL)
inhibition [11]: 5%
MIC [12]: 125 µM (≈ 41.5 µg/mL)
MIC (Mycobacterium kansasii [13]): 250 µM (≈ 83.1 µg/mL)
MIC (Mycobacterium kansasii [14]): 250 µM (≈ 83.1 µg/mL)
IC50 (HepG2 [15]): 26.8 µM

Nc1ccc(C(=O)O)c(O)c1 [AMINOSALICYLIC ACID]
MIC [1]: 62.5 µM (≈ 9.57 µg/mL)
MIC (Mycobacterium avium [2]): 125 µM (≈ 19.1 µg/mL)
MIC (Mycobacterium avium [4]): 32 µM (≈ 4.9 µg/mL)
MIC (Mycobacterium kansasii [6]): 32 µM (≈ 4.9 µg/mL)
MIC (Mycobacterium kansasii [7]): 125 µM (≈ 19.1 µg/mL)
selectivity ratio (in vitro): 35.8
MIC (Mycobacterium kansasii [9]): 1000 µM (≈ 153 µg/mL)
MIC (Mycobacterium kansasii [10]): > 1000 µM
inhibition [11]: 0%
MIC [12]: 62.5 µM (≈ 9.57 µg/mL)
MIC (Mycobacterium kansasii [13]): 500 µM (≈ 76.6 µg/mL)
MIC (Mycobacterium kansasii [14]): 125 µM (≈ 19.1 µg/mL)

O=C(Nc1ccccc1)Oc1ccc(Cl)cc1
MIC (Mycolicibacterium aurum): 15.6 µg/mL
MIC [1]: 500 µM (≈ 124 µg/mL)
MIC (Mycobacterium avium [2]): 1000 µM (≈ 248 µg/mL)
MIC [3]: 15.6 µg/mL
MIC (Mycobacterium avium [4]): 500 µM (≈ 124 µg/mL)
IC50 (HepG2 [5]): > 125 µM
MIC (Mycobacterium kansasii [6]): 125 µM (≈ 31 µg/mL)
MIC (Mycobacterium kansasii [7]): 125 µM (≈ 31 µg/mL)
MIC [8]: 7.81 µg/mL
selectivity ratio (in vitro): > 0.3
MIC (Mycobacterium kansasii [9]): 250 µM (≈ 61.9 µg/mL)
MIC (Mycobacterium kansasii [10]): 500 µM (≈ 124 µg/mL)
inhibition [11]: 14%
MIC [12]: 250 µM (≈ 61.9 µg/mL)
MIC (Mycobacterium kansasii [13]): 500 µM (≈ 124 µg/mL)
MIC (Mycobacterium kansasii [14]): 250 µM (≈ 61.9 µg/mL)
IC50 (HepG2 [15]): > 125 µM

O=C(NCCc1ccccc1)Oc1ccc(Cl)cc1
MIC (Mycolicibacterium aurum): 125 µg/mL
MIC [1]: 250 µM (≈ 68.9 µg/mL)
MIC (Mycobacterium avium [2]): 500 µM (≈ 138 µg/mL)
MIC [3]: 62.5 µg/mL
MIC (Mycobacterium avium [4]): 250 µM (≈ 68.9 µg/mL)
IC50 (HepG2 [5]): > 125 µM
MIC (Mycobacterium kansasii [6]): 125 µM (≈ 34.5 µg/mL)
MIC (Mycobacterium kansasii [7]): 125 µM (≈ 34.5 µg/mL)
MIC [8]: 31.2 µg/mL
selectivity ratio (in vitro): > 0.5
MIC (Mycobacterium kansasii [9]): 250 µM (≈ 68.9 µg/mL)
MIC (Mycobacterium kansasii [10]): 500 µM (≈ 138 µg/mL)
inhibition [11]: 12%
MIC [12]: 250 µM (≈ 68.9 µg/mL)
MIC (Mycobacterium kansasii [13]): 500 µM (≈ 138 µg/mL)
MIC (Mycobacterium kansasii [14]): 250 µM (≈ 68.9 µg/mL)
IC50 (HepG2 [15]): > 250 µM

O=C(NCc1ccccc1)Oc1ccc(Cl)cc1
MIC (Mycolicibacterium aurum): 125 µg/mL
MIC [1]: 250 µM (≈ 65.4 µg/mL)
MIC (Mycobacterium avium [2]): 500 µM (≈ 131 µg/mL)
MIC [3]: 152 µg/mL
MIC (Mycobacterium avium [4]): 500 µM (≈ 131 µg/mL)
IC50 (HepG2 [5]): > 125 µM
MIC (Mycobacterium kansasii [6]): 125 µM (≈ 32.7 µg/mL)
MIC (Mycobacterium kansasii [7]): 125 µM (≈ 32.7 µg/mL)
MIC [8]: 31.2 µg/mL
selectivity ratio (in vitro): > 0.5
MIC (Mycobacterium kansasii [9]): 250 µM (≈ 65.4 µg/mL)
MIC (Mycobacterium kansasii [10]): 500 µM (≈ 131 µg/mL)
inhibition [11]: 14%
MIC [12]: 125 µM (≈ 32.7 µg/mL)
MIC (Mycobacterium kansasii [13]): 500 µM (≈ 131 µg/mL)
MIC (Mycobacterium kansasii [14]): 250 µM (≈ 65.4 µg/mL)
IC50 (HepG2 [15]): > 125 µM

NNC(=O)c1ccncc1 [ISONIAZID]
MIC (Mycolicibacterium aurum): 3.91 µg/mL
MIC [1]: 1 µM (≈ 0.137 µg/mL)
MIC (Mycobacterium avium [2]): > 250 µM
MIC [3]: 15.6 µg/mL
MIC (Mycobacterium avium [4]): > 250 µM
IC50 (HepG2 [5]): > 250 µM
MIC (Mycobacterium kansasii [6]): 4 µM (≈ 0.549 µg/mL)
MIC (Mycobacterium kansasii [7]): > 250 µM
MIC [8]: 0.91 to 1.82 µM
selectivity ratio (in vitro): > 250
MIC (Mycobacterium kansasii [9]): > 250 µM
MIC (Mycobacterium kansasii [10]): > 250 µM
inhibition [11]: 0%
MIC [12]: 0.5 µM (≈ 0.0686 µg/mL)
MIC (Mycobacterium kansasii [13]): 8 µM (≈ 1.1 µg/mL)
MIC (Mycobacterium kansasii [14]): 8 µM (≈ 1.1 µg/mL)

CO[C@H]1/C=C/O[C@@]2(C)Oc3c(C)c(O)c4c(O)c(c(/C=N/N5CCN(C)CC5)c(O)c4c3C2=O)NC(=O)/C(C)=C\C=C\[C@H](C)[C@H](O)[C@@H](C)[C@@H](O)[C@@H](C)[C@H](OC(C)=O)[C@@H]1C [RIFAMPIN]
MIC (Mycolicibacterium aurum): 0.47 µM
MIC [3]: 12.5 to 25 µg/mL
MIC [8]: 0.0005 to 0.009 µM

Oc1ccc(Cl)cc1 [PARACHLOROPHENOL]
MIC [1]: 250 µM (≈ 32.1 µg/mL)
MIC (Mycobacterium avium [2]): > 250 µM
MIC (Mycobacterium avium [4]): > 250 µM
MIC (Mycobacterium kansasii [6]): 125 µM (≈ 16.1 µg/mL)
MIC (Mycobacterium kansasii [7]): 250 µM (≈ 32.1 µg/mL)
MIC (Mycobacterium kansasii [9]): > 250 µM
MIC (Mycobacterium kansasii [10]): > 250 µM
MIC [12]: 125 µM (≈ 16.1 µg/mL)
MIC (Mycobacterium kansasii [13]): > 250 µM
MIC (Mycobacterium kansasii [14]): 250 µM (≈ 32.1 µg/mL)

O=C(O)CC[N+](=O)[O-]
inhibition [11]: 25%
